# Key:
# [1] = biological target: purified human autoBACE-2 (Homo sapiens (Human), UniProt Q9Y5Z0); test: BACE-2 Assay (BACE-HTRF assay); type: biochemical; conditions: Ki calculated from IC50 using the Cheng-Prusoff equation; QSY7-EISEVNLDAEFC-Eu-amide substrate, pH 5.0
# Procedure: Inhibitor IC50s at purified human autoBACE-2 are determined in a time-resolved endpoint proteolysis assay that measures hydrolysis of the QSY7-[…]-Eu-amide FRET peptide substrate (BACE-HTRF assay). […] DMSO is present at 5% final concentration in the assay. Following laser excitation of sample wells at 320 nm, the fluorescence signal at 620 nm is collected for 400 ms following a 50 μs delay on a RUBYstar HTRF plate reader (BMG Labtechnologies). Raw RFU data is normalized to maximum (1.0 nM BACE/DMSO) and minimum (no enzyme/DMSO) RFU values. […] The Ki values are calculated from the IC50 using the Cheng-Prusoff equation.
# [2] = biological target: soluble human BACE1 catalytic domain (Homo sapiens (Human), UniProt P56817); test: BACE1 HTRF FRET Assay; type: biochemical; conditions: Ki calculated from IC50 using the Cheng-Prusoff equation; QSY7-APPswe-Eu substrate, pH 5.0; read-out: BACE-1 Ki
# Chain of soluble human BACE1 catalytic domain (P56817 75-416): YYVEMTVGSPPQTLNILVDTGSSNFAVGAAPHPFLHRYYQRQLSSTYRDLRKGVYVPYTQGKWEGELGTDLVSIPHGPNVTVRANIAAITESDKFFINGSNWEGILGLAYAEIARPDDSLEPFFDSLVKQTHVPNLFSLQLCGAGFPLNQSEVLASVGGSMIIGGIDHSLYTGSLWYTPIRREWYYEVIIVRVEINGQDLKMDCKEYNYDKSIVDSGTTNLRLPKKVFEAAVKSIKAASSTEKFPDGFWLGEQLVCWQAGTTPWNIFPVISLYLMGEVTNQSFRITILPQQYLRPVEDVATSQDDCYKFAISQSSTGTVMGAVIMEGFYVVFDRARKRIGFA
# Text: Na^+-Acetate pH 5.0; 1% Brij-35; Glycerol; Dimethyl Sulfoxide (DMSO); Recombinant human soluble BACE1 catalytic domain (>95% pure); APP Swedish mutant peptide substrate (QSY7-APP^swe-Eu): QSY7-EISEVNLDAEFC-Europium-amide.
# A homogeneous time-resolved FRET assay can be used to determine IC50 values for inhibitors of the soluble human BACE1 catalytic domain. This assay monitors the increase of 620 nm fluorescence that resulted from BACE1 cleavage of an APPswedish APP^swe mutant peptide FRET substrate (QSY7-EISEVNLDAEFC-Europium-amide). This substrate contains an N-terminal QSY7 moiety that serves as a quencher of the C-terminal Europium fluorophore (620 nm Em). In the absence of enzyme activity, 620 nm fluorescence is low in the assay and increased linearly over 3 hours in the presence of uninhibited BACE1 enzyme. Inhibition of BACE1 cleavage of the QSY7-APP^swe-Eu substrate by inhibitors is manifested as a suppression of 620 nm fluorescence.
# Varying concentrations of inhibitors at 3× the final desired concentration in a volume of 10 ul are preincubated with purified human BACE1 catalytic domain (3 nM in 10 μl) for 30 minutes at 30° C. in reaction buffer containing 20 mM Na-Acetate pH 5.0, 10% glycerol, 0.1% Brij-35 and 7.5% DSMO. Reactions are initiated by addition of 10 μl of 600 nM QSY7-APP^swe-Eu substrate (200 nM final) to give a final reaction volume of 30 μl in a 384 well Nunc HTRF plate. The reactions are incubated at 30° C. for 1.5 hours. The 620 nm fluorescence is then read on a Rubystar HTRF plate reader (BMG Labtechnologies) using a 50 millisecond delay followed by a 400 millisecond acquisition time window. Inhibitor IC50 values are derived from non-linear regression analysis of concentration response curves. Ki values are then calculated from IC50 values using the Cheng-Prusoff equation using a previously determined […] of 8 μM for the QSY7-APP^swe-Eu substrate at BACE1.
# Chain of purified human autoBACE-2 (Q9Y5Z0 63-473 limits assumed): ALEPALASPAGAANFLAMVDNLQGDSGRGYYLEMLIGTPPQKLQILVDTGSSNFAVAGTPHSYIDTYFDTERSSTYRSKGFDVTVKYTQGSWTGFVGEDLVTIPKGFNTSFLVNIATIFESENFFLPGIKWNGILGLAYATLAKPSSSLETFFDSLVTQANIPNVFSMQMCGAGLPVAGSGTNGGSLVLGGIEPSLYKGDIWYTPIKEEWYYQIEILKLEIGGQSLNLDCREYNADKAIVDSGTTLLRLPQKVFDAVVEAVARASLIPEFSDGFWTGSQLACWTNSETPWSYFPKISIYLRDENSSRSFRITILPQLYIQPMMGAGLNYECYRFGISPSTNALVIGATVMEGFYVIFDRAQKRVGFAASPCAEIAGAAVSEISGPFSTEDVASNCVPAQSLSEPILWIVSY
SMILES,Ki [1],Ki [2]
"COc1cnc(C(=O)Nc2ccc3c(c2)[C@@]2(C)NC(=N)N(C)S(=O)(=O)[C@H]2CCC3)c(C)c1 [Example 32, N-((4aS,11bR)-2-imino-3,11b-dimethyl-4,4-dioxido-1,2,3,4a,5,6,7,11b-octahydrobenzo[6,7]cyclohepta[1,2-e][1,2,4]thiadiazin-10-yl)-5-methoxy-3-methylpicolinamide]",34 nM,27 nM
CN1C(=N)N[C@]2(C)c3cc(NC(=O)c4ccc(C#N)cn4)ccc3CCC[C@H]2S1(=O)=O [Example 39],315 nM,60 nM
"CN1C(=N)N[C@]2(C)c3cc(NC(=O)c4ccc(F)cn4)ccc3CCC[C@H]2S1(=O)=O [Example 37, 5-fluoro-N-((4aR,11bR)-2-imino-3,11b-dimethyl-4,4-dioxido-1,2,3,4a,5,6,7,11b-octahydrobenzo[6,7]cyclohepta[1,2-e][1,2,4]thiadiazin-10-yl)picolinamide]",96 nM,159 nM
"CN1C(=N)N[C@]2(C)c3cc(NC(=O)c4ccc(OC(F)(F)F)cn4)ccc3OCC[C@@H]2S1(=O)=O [Example 19, N-((4aS,11bR)-2-imino-3,11b-dimethyl-4,4-dioxido-2,3,4a,5,6,11b-hexahydro-1H-benzo[2,3]oxepino[4,5-e][1,2,4]thiadiazin-10-yl)-5-(trifluoromethoxy)picolinamide]",104 nM,8 nM
"CN1C(=N)N[C@]2(C)c3cc(NC(=O)c4ccc(F)cn4)ccc3OCC[C@@H]2S1(=O)=O [Example 14, 5-fluoro-N-((4aS,11bR)-2-imino-3,11b-dimethyl-4,4-dioxido-2,3,4a,5,6,11b-hexahydro-1H-benzo[2,3]oxepino[4,5-e][1,2,4]thiadiazin-10-yl)picolinamide]",6 nM,10 nM
"CN1C(=N)N[C@]2(C)c3cc(NC(=O)c4ccc(C#N)cn4)ccc3OCC[C@H]2S1(=O)=O [Example 5, 5-cyano-N-((4aR,11bR)-2-imino-3,11b-dimethyl-4,4-dioxido-2,3,4a,5,6,11b-hexahydro-1H-benzo[2,3]oxepino[4,5-e][1,2,4]thiadiazin-10-yl)picolinamide]",303 nM,47 nM
"Cc1cc(F)cnc1C(=O)Nc1ccc2c(c1)[C@@]1(C)NC(=N)N(C)S(=O)(=O)[C@@H]1CCO2 [Example 8, 5-fluoro-N-((4aR,11bR)-2-imino-3,11b-dimethyl-4,4-dioxido-2,3,4a,5,6,11b-hexahydro-1H-benzo[2,3]oxepino[4,5-e][1,2,4]thiadiazin-10-yl)-3-methylpicolinamide]",86 nM,133 nM
"Cc1ccc(C(=O)Nc2ccc3c(c2)[C@@]2(C)NC(=N)N(C)S(=O)(=O)[C@H]2CCC3)nc1 [Example 21, N-((4aS,11bR)-2-imino-3,11b-dimethyl-4,4-dioxido-1,2,3,4a,5,6,7,11b-octahydrobenzo[6,7]cyclohepta[1,2-e][1,2,4]thiadiazin-10-yl)-5-methylpicolinamide]",34 nM,45 nM

# Reference: patent US10238743B2 (Merck Sharp & Dohme Corp., priority 2014, dated 2019)
